Reference: ChEMBL document CHEMBL5149973, “Agaricus bisporus-Derived Glucosamine Hydrochloride Facilitates Skeletal Injury Repair through Bmp Signaling in Zebrafish Osteoporosis Model” (J Nat Prod, 2021)
Calls of active or inactive are those of the source. The rule behind the calls is not given here.

Legend:
[1] = species on record: Danio rerio; assay: Suppression of Bmp signaling in Zebrafish tBr injected mRNA embryos assessed as reduction in indistinctive tail tissue at 2.5 uM measured at 26 hrs post fertilization; assay type: functional, Embryo; parameters: scale not given: the % may be the effect or the level left
[2] = species on record: Danio rerio; assay: Suppression of Bmp signaling in Zebrafish tBr injected mRNA embryos assessed as reduction in slight loss of tail tissue at 2.5 uM measured at 26 hrs post fertilization; assay type: functional, Embryo; parameters: scale not given: the % may be the effect or the level left
[3] = test system: Osteoblast; assay: Induction of osteoblast differentiation in transgenic osx mCherry Zebrafish embryo assessed as increase in Col1a2 mRNA expression in fin at 0.1 % measured after 15 days by semiquantitative PCR analysis; assay type: functional, tissue-based; conditions: Danio rerio, time 15.0 day
[4] = species on record: Danio rerio; assay: Anti-osteoporosis activity in FAC-induced skeletal injury Zebrafish assessed as increase in cumulative bone optical density in caudal fins at 0.1 % measured for 10 day post fertilization; assay type: functional, organism-based
[5] = test system: Osteoblast; assay: Induction of osteoblast differentiation in transgenic osx mCherry Zebrafish embryo assessed as increase in Col10a1a mRNA expression in fin at 0.1 % measured after 15 days by semiquantitative PCR analysis; assay type: functional; conditions: Danio rerio, time 15.0 day
[6] = test system: Osteoblast; assay: Induction of osteoblast differentiation in transgenic osx mCherry Zebrafish embryo assessed as increase in Sox9b mRNA expression in fin at 0.1 % measured after 15 days by semiquantitative PCR analysis; assay type: functional, tissue-based; conditions: Danio rerio, time 15.0 day
[7] = species on record: Danio rerio; assay: Anti-osteoporosis activity in FAC-induced skeletal injury Zebrafish assessed as increase in cumulative bone optical density in spine at 0.1 % measured for 10 day post fertilization; assay type: functional, organism-based
[8] = test system: Osteoblast; assay: Induction of osteoblast differentiation in transgenic osx mCherry Zebrafish embryo assessed as increase in Sox9a mRNA expression in fin at 0.1 % measured after 15 days by semiquantitative PCR analysis; assay type: functional, tissue-based; conditions: Danio rerio, time 15.0 day

| Structure (SMILES) | Activity [1] | Activity [2] | Activity [3] | Activity [4] | Activity [5] | Activity [6] | Activity [7] | Activity [8] |
| --- | --- | --- | --- | --- | --- | --- | --- | --- |
| c1cc(-c2cnn3cc(-c4ccc(OCCN5CCCCC5)cc4)cnc23)ccn1 [DORSOMORPHIN] | 80% | 80% | – | – | – | – | – | – |
| NCCCC(O)(P(=O)(O)O)P(=O)(O)O | – | – | Active | Active | Active | Active | Active | Active |
